Test results taken from the supplement of paper PMC10307832.

Columns and labels:
Test in all cases: relative viability (nuclei count vs DMSO), 5 days (fraction); higher = more cells survive
Zebularine = compound: O=c1ncccn1[C@@H]1O[C@H](CO)[C@@H](O)[C@H]1O [Zebularine]
Procedure, shortened: (§1)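 Following overnight incubation at 37 °C, lung cancer cell lines in 1536-well plates were pinned with five library-drug doses (not always all listed) in √10 steps on vehicle-anchored plates. The cells then spent 5 days without medium change before a combined fix, permeabilisation and Hoechst stain, 4× imaging and MetaXpress nuclear counts. Viability is the treated-to-vehicle ratio of nuclei, taken as the median across plates. Only plates with control CV below 25% and at least one doubling passed.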

BI-D1870 = compound: CC(C)CCN1c2nc(Nc3cc(F)c(O)c(F)c3)ncc2N(C)C(=O)C1C [BI-D1870]
Procedure, shortened: as §1

BI-D1870 + Vorinostat = compound: CC(C)CCN1c2nc(Nc3cc(F)c(O)c(F)c3)ncc2N(C)C(=O)C1C [BI-D1870] + O=C(CCCCCCC(=O)Nc1ccccc1)NO [Vorinostat] (partner 1 µM)
Procedure, shortened: (§2)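 Lung cancer cell lines, seeded in 1536-well plates, were treated the following day by pin tool with a single drug or with five library-drug doses (not always all listed) in √10 steps on top of a fixed anchor-drug dose. Cells were fixed and nuclei stained in one step after 5 days, and nuclei were counted. Relative viability is the nuclei count for treated wells divided by that for vehicle wells, reported as medians of duplicate plates.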

BI-D1870 + Decitabine = compound: CC(C)CCN1c2nc(Nc3cc(F)c(O)c(F)c3)ncc2N(C)C(=O)C1C [BI-D1870] + Nc1ncn([C@H]2C[C@H](O)[C@@H](CO)O2)c(=O)n1 [Decitabine] (partner 2 µM)
Procedure, shortened: as §2

For UMC-11, the relative viability (Zebularine; 1 µM) was 1.1, the relative viability (Zebularine; 3.162 µM) was 0.824 and the relative viability (Zebularine; 10 µM) was 0.673. For the same cell line, the relative viability (Zebularine; 31.62 µM) was 0.653, the relative viability (Zebularine; 100 µM) was 0.422 and the relative viability (BI-D1870; 0.04 µM) was 0.972. The relative viability (BI-D1870; 0.1265 µM) was 0.949, the relative viability (BI-D1870; 0.4 µM) was 1.04 and the relative viability (BI-D1870; 1.265 µM) was 1.02. It also gave a relative viability (BI-D1870; 4 µM) of 0.387, a relative viability (BI-D1870 + Vorinostat; first compound 0.04 µM) of 0.394 and a relative viability (BI-D1870 + Vorinostat; first compound 0.1265 µM) of 0.377. For the same cell line, the relative viability (BI-D1870 + Vorinostat; first compound 0.4 µM) was 0.337, the relative viability (BI-D1870 + Vorinostat; first compound 1.265 µM) was 0.329 and the relative viability (BI-D1870 + Vorinostat; first compound 4 µM) was 0.128. The relative viability (BI-D1870 + Decitabine; first compound 0.04 µM) was 0.581, the relative viability (BI-D1870 + Decitabine; first compound 0.1265 µM) was 0.466 and the relative viability (BI-D1870 + Decitabine; first compound 0.4 µM) was 0.669. The relative viability (BI-D1870 + Decitabine; first compound 1.265 µM) was 0.674 and the relative viability (BI-D1870 + Decitabine; first compound 4 µM) was 0.622.
